test system: not given; experiment: not given; details: not given

melting point [°C] | Compound
139 to 140 | CCc1c2nc(-c3cc(S(=O)(=O)N4CCN(CC)CC4)cnc3OCCOC)[nH]c(=O)c2nn1Cc1ccccn1 (hydrate or solvate) [Example 4, 3-Ethyl-5-[5-(4-ethylpiperazin-1-ylsulphonyl)-2-(2-methoxyethoxy)pyridin-3-yl]-2-(Pyridin-2-yl)methyl-2,6-dihydro-7H-pyrazolo[4,3-d]pyrimidin-7-one]

target: cGMP PDE5 (UniProt O76074); experiment: Phosphodiesterase (PDE) inhibitory activity, in vitro, cGMP PDE5; format: biochemical, human or rabbit; details: in vitro activity as inhibitors of cGMP PDE5
Description: In vitro PDE inhibitory activities against cyclic guanosine 3′,5′-monophosphate (cGMP) and cyclic adenosine 3′,5′-monophosphate (cAMP) phosphodiesterases were determined by measurement of their IC50 values (the concentration of compound required for 50% inhibition of enzyme activity).
The required PDE enzymes were isolated from a variety of sources, including human corpus cavernosum, human and rabbit platelets, human cardiac ventricle, human skeletal muscle and bovine retina, essentially by the method of W. J. Thompson and M. M. Appleman (Biochem., 1971, 10, 311). In particular, the cGMP-specific PDE (PDE5) and the cGMP-inhibited cAMP PDE (PDE3) were obtained from human corpus cavernosum tissue, human platelets or rabbit platelets; the cGMP-stimulated PDE (PDE2) was obtained from human corpus cavernosum; the calcium/calmodulin (Ca/CAM)-dependent PDE (PDE1) from human cardiac ventricle; the cAMP-specific PDE (PDE4) from human skeletal muscle; and the photoreceptor PDE (PDE6) from bovine retina.
Assays were performed using a modification of the “batch” method of W. J. Thompson et al. (Biochem., 1979, 18, 5228).

Compound | IC50 [nM]
CCCc1nn(C)c2c(=O)[nH]c(-c3cc(S(=O)(=O)N4CCN(CC)CC4)cnc3OCc3ccccn3)nc12 [Example 127, 5-{5-(4-Ethylpiperazin-1-ylsulphonyl)-2-[(pyridin-2-yl)methoxy]pyridin-3-yl}-1-methyl-3-n-propyl-1,6-dihydro-7H-pyrazolo[4,3-d]pyrimidin-7-one] | 7.3
CCc1c2nc(-c3cc(S(=O)(=O)N4CCN(CC)CC4)cnc3O[C@@H]3CCOC3)[nH]c(=O)c2nn1Cc1ccccn1 [Example 18, 3-Ethyl-5-[5-(4-ethylpiperazin-1-ylsulphonyl)-2-(tetrahydrofuran-3(R)-yloxy)pyridin-3-yl]-2-(pyridin-2-yl)methyl-2,6-dihydro-7H-pyrazolo[4,3-d]pyrimidin-7-one] | 8.9
CCc1nn(Cc2nccn2C)c2c(=O)[nH]c(-c3cc(S(=O)(=O)N4CCN(CC)CC4)cnc3OCCOC)nc12 [Example 46, 3-Ethyl-5-[5-(4-ethylpiperazin-1-ylsulphonyl)-2-(2-methoxyethoxy)pyridin-3-yl]-1-(1-methylimidazol-2-yl)methyl-1,6-dihydro-7H-pyrazolo[4,3-d]pyrimidin-7-one] | 8.1
CCc1c2nc(-c3cc(S(=O)(=O)N4CCN(CC)CC4)cnc3N3CCCC3)[nH]c(=O)c2nn1Cc1ccccn1 [Example 153] | 7.2
CCCc1c2nc(-c3cc(S(=O)(=O)N4CCN(CC)CC4)cnc3OCCOCC)[nH]c(=O)c2nn1Cc1ccccn1 [Example 10, 5-[2-(2-Ethoxyethoxy)-5-(4-ethylpiperazin-1-ylsulphonyl)pyridin-3-yl]-3-n-propyl-2-(pyridin-2-yl)methyl-2,6-dihydro-7H-pyrazolo[4,3-d]pyrimidin-7-one] | 10.1
CCc1c2nc(-c3cc(S(=O)(=O)N4CCN(CC)CC4)cnc3OCCCOC)[nH]c(=O)c2nn1Cc1ccccn1 [Example 11, 3-Ethyl-5-[5-(4-ethylpiperazin-1-ylsulphonyl)-2-(3-methoxyprop-1-oxy)-pyridin-3-yl]-2-(pyridin-2-yl)methyl-2,6-dihydro-7H-pyrazolo[4,3-d]pyrimidin-7-one] | 10

More lines, now with the values ahead:

IC50 [nM] | Compound
3.6 | CCCc1c2nc(-c3cc(S(=O)(=O)N4CCN(CC)CC4)cnc3OCC)[nH]c(=O)c2nn1Cc1ncccn1 [Example 43b, 5-[2-Ethoxy-5-(4-ethylpiperazin-1-ylsulphonyl)pyridin-3-yl]-3-n-propyl-2-(pyrimidin-2-yl)methyl-2,6-dihydro-7H-pyrazolo[4,3-d]pyrimidin-7-one]
6.9 | CCCc1nn(Cc2ncccn2)c2c(=O)[nH]c(-c3cc(S(=O)(=O)N4CCN(CC)CC4)cnc3OCCOC)nc12 [Example 48, 5-[5-(4-Ethylpiperazin-1-ylsulphonyl)-2-(2-methoxyethoxy)pyridin-3-yl]-3-n-propyl-1-(pyrimidin-2-yl)methyl-1,6-dihydro-7H-pyrazolo[4,3-d]pyrimidin-7-one]
5.7 | CCc1c2nc(-c3cc(S(=O)(=O)N4CCN(CC)CC4)cnc3OCc3ccccn3)[nH]c(=O)c2nn1C [Example 99, 3-Ethyl-5-[5-(4-ethylpiperazin-1-ylsulphonyl)-2-(pyridin-2-yl)methoxypyridin-3-yl]-2-methyl-2,6-dihydro-7H-pyrazolo[4,3-d]pyrimidin-7-one]
7 | CCc1c2nc(-c3cc(S(=O)(=O)N4CCN(CC)CC4)cnc3O[C@H](C)[C@@H](C)OC)[nH]c(=O)c2nn1C [Example 98, 3-Ethyl-5-[5-(4-ethylpiperazin-1-ylsulphonyl)-2-(2-(R)-methoxy-1-(R)-methylpropoxy)pyridin-3-yl]-2-methyl-2,6-dihydro-7H-pyrazolo[4,3-d]pyrimidin-7-one]

From patent US6458951B2, “Pyrazolopyrimidinone cGMP PDE5 inhibitors for the treatment of sexual dysfunction” (Pfizer Inc, priority 1998, dated 2002)
